Measurements reported in PubChem BioAssay AID2060615 (Molecular Pharmacology Branch, DTP, NCI, 2025).

Test system: 496974-208-R-J2-PDC complex spheroids, growth % test/control
Assay: Anticancer human tumor 496974-208-R-J2-PDC patient-derived pancreatic carcinoma cell line growth inhibition [CLK]
Conditions: for IC50: curve of first compound; for viability, T/C: stronger effect = lower value
Outline: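 Patient-derived tumor cells grown as complex spheroids with HUVEC endothelial cells and mesenchymal stem cells, treated with drug combinations. Concentrations descend in half-log steps from near clinical Cmax, or from 10 microM if Cmax unknown.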

[1] = second compound 0.0316 µM, first compound 0.0316 µM
[2] = second compound 0.0316 µM, first compound 0.1 µM
[3] = second compound 0.1 µM, first compound 0.0316 µM
[4] = second compound 0.1 µM, first compound 0.1 µM
[5] = second compound 0.316 µM, first compound 0.0316 µM
[6] = second compound 0.316 µM, first compound 0.1 µM
[7] = second compound 1 µM, first compound 0.0316 µM
[8] = second compound 1 µM, first compound 0.1 µM
[9] = second compound 3.16 µM, first compound 0.0316 µM
[10] = second compound 3.16 µM, first compound 0.1 µM
[11] = second compound 10 µM, first compound 0.0316 µM
[12] = second compound 10 µM, first compound 0.1 µM
[13] = second compound 0.0316 µM, first compound 0.316 µM
[14] = second compound 0.0316 µM, first compound 1 µM
[15] = second compound 0.0316 µM, first compound 3.16 µM
[16] = second compound 0.0316 µM, first compound 10 µM
[17] = second compound 0.1 µM, first compound 0.316 µM
[18] = second compound 0.1 µM, first compound 1 µM
[19] = second compound 0.1 µM, first compound 3.16 µM
[20] = second compound 0.1 µM, first compound 10 µM
[21] = second compound 0.316 µM, first compound 0.316 µM
[22] = second compound 0.316 µM, first compound 1 µM
[23] = second compound 0.316 µM, first compound 3.16 µM
[24] = second compound 0.316 µM, first compound 10 µM
[25] = second compound 1 µM, first compound 0.316 µM
[26] = second compound 1 µM, first compound 1 µM
[27] = second compound 1 µM, first compound 3.16 µM
[28] = second compound 1 µM, first compound 10 µM
[29] = second compound 3.16 µM, first compound 0.316 µM
[30] = second compound 3.16 µM, first compound 1 µM
[31] = second compound 3.16 µM, first compound 3.16 µM
[32] = second compound 3.16 µM, first compound 10 µM
[33] = second compound 10 µM, first compound 0.316 µM
[34] = second compound 10 µM, first compound 1 µM
[35] = second compound 10 µM, first compound 3.16 µM
[36] = second compound 10 µM, first compound 10 µM
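Further: spheroids exposed to the drugs for 7 days before readout.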
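Wherever viability, T/C is given: 100% = DMSO vehicle control wells.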

## Cn1ncnc1[C@H]1c2n[nH]c(=O)c3cc(F)cc(c23)N[C@@H]1c1ccc(F)cc1 + CN1CCN(c2cc(C(=O)Nc3cc4cc(-c5cnn(C)c5)ccc4cn3)ccn2)CC1
Second compound 0.0316 µM
  IC50: > 100 nM
Second compound 0.1 µM
  IC50: > 100 nM
Second compound 0.316 µM
  IC50: < 0.316 nM
Second compound 1 µM
  IC50: < 0.316 nM
Second compound 3.16 µM
  IC50: < 0.316 nM
Second compound 10 µM
  IC50: < 0.316 nM
Second compound 0.0316 µM, first compound 0.000316 µM
  viability, T/C: 112%
Second compound 0.0316 µM, first compound 0.001 µM
  viability, T/C: 106%
Second compound 0.0316 µM, first compound 0.00316 µM
  viability, T/C: 99.2%
Second compound 0.0316 µM, first compound 0.01 µM
  viability, T/C: 94.9%
[1]
  viability, T/C: 107%
[2]
  viability, T/C: 96.5%
Second compound 0.1 µM, first compound 0.000316 µM
  viability, T/C: 84.8%
Second compound 0.1 µM, first compound 0.001 µM
  viability, T/C: 88.5%
Second compound 0.1 µM, first compound 0.00316 µM
  viability, T/C: 85.1%
Second compound 0.1 µM, first compound 0.01 µM
  viability, T/C: 79.6%
[3]
  viability, T/C: 84.1%
[4]
  viability, T/C: 63.7%
Second compound 0.316 µM, first compound 0.000316 µM
  viability, T/C: 5.57%
Second compound 0.316 µM, first compound 0.001 µM
  viability, T/C: 7.18%
Second compound 0.316 µM, first compound 0.00316 µM
  viability, T/C: 5.28%
Second compound 0.316 µM, first compound 0.01 µM
  viability, T/C: 6.84%
[5]
  viability, T/C: 6.51%
[6]
  viability, T/C: 9.2%
Second compound 1 µM, first compound 0.000316 µM
  viability, T/C: 0.52%
Second compound 1 µM, first compound 0.001 µM
  viability, T/C: 0.5%
Second compound 1 µM, first compound 0.00316 µM
  viability, T/C: 0.55%
Second compound 1 µM, first compound 0.01 µM
  viability, T/C: 0.33%
[7]
  viability, T/C: 0.32%
[8]
  viability, T/C: 2.32%
Second compound 3.16 µM, first compound 0.000316 µM
  viability, T/C: 0.36%
Second compound 3.16 µM, first compound 0.001 µM
  viability, T/C: 0.46%
Second compound 3.16 µM, first compound 0.00316 µM
  viability, T/C: 1.75%
Second compound 3.16 µM, first compound 0.01 µM
  viability, T/C: 0.59%
[9]
  viability, T/C: 0.66%
[10]
  viability, T/C: 0.41%
Second compound 10 µM, first compound 0.000316 µM
  viability, T/C: 0.27%
Second compound 10 µM, first compound 0.001 µM
  viability, T/C: 1.75%
Second compound 10 µM, first compound 0.00316 µM
  viability, T/C: 0.83%
Second compound 10 µM, first compound 0.01 µM
  viability, T/C: 0.22%
[11]
  viability, T/C: 2.44%
[12]
  viability, T/C: 2.04%

## Nc1ccn(C2OC(CO)C(O)C2(F)F)c(=O)n1 (stereo unspecified) + CN1CCN(c2cc(C(=O)Nc3cc4cc(-c5cnn(C)c5)ccc4cn3)ccn2)CC1
Second compound 0.0316 µM
  IC50: 959 nM
Second compound 0.1 µM
  IC50: 259 nM
Second compound 0.316 µM
  IC50: < 31.6 nM
Second compound 1 µM
  IC50: < 31.6 nM
Second compound 3.16 µM
  IC50: < 31.6 nM
Second compound 10 µM
  IC50: < 31.6 nM
[1]
  viability, T/C: 90.8%
[2]
  viability, T/C: 76.9%
[13]
  viability, T/C: 62.3%
[14]
  viability, T/C: 44%
[15]
  viability, T/C: 48.2%
[16]
  viability, T/C: 50%
[3]
  viability, T/C: 76.3%
[4]
  viability, T/C: 57.8%
[17]
  viability, T/C: 50.3%
[18]
  viability, T/C: 40.6%
[19]
  viability, T/C: 38.6%
[20]
  viability, T/C: 38.5%
[5]
  viability, T/C: 5.11%
[6]
  viability, T/C: 5.63%
[21]
  viability, T/C: 6.71%
[22]
  viability, T/C: 5.91%
[23]
  viability, T/C: 5.91%
[24]
  viability, T/C: 4.9%
[7]
  viability, T/C: 0.42%
[8]
  viability, T/C: 0.5%
[25]
  viability, T/C: 1.35%
[26]
  viability, T/C: 0.4%
[27]
  viability, T/C: 2.61%
[28]
  viability, T/C: 0.41%
[9]
  viability, T/C: 0.53%
[10]
  viability, T/C: 0.7%
[29]
  viability, T/C: 0.57%
[30]
  viability, T/C: 0.47%
[31]
  viability, T/C: 0.44%
[32]
  viability, T/C: 1.78%
[11]
  viability, T/C: 0.28%
[12]
  viability, T/C: 1.23%
[33]
  viability, T/C: 1.72%
[34]
  viability, T/C: 0.25%
[35]
  viability, T/C: 2.65%
[36]
  viability, T/C: 0.29%

## O=c1[nH]cc(F)c(=O)[nH]1 + CN1CCN(c2cc(C(=O)Nc3cc4cc(-c5cnn(C)c5)ccc4cn3)ccn2)CC1
Second compound 0.0316 µM
  IC50: 5870 nM
Second compound 0.1 µM
  IC50: 4190 nM
Second compound 0.316 µM
  IC50: < 31.6 nM
Second compound 1 µM
  IC50: < 31.6 nM
Second compound 3.16 µM
  IC50: < 31.6 nM
Second compound 10 µM
  IC50: < 31.6 nM
[1]
  viability, T/C: 108%
[2]
  viability, T/C: 99.2%
[13]
  viability, T/C: 99.3%
[14]
  viability, T/C: 76.8%
[15]
  viability, T/C: 60.1%
[16]
  viability, T/C: 42%
[3]
  viability, T/C: 83.5%
[4]
  viability, T/C: 83.7%
[17]
  viability, T/C: 76.3%
[18]
  viability, T/C: 68.1%
[19]
  viability, T/C: 54.2%
[20]
  viability, T/C: 37.4%
[5]
  viability, T/C: 7.23%
[6]
  viability, T/C: 6.68%
[21]
  viability, T/C: 5.78%
[22]
  viability, T/C: 6.41%
[23]
  viability, T/C: 6.09%
[24]
  viability, T/C: 6.36%
[7]
  viability, T/C: 0.41%
[8]
  viability, T/C: 0.51%
[25]
  viability, T/C: 0.5%
[26]
  viability, T/C: 0.43%
[27]
  viability, T/C: 0.32%
[28]
  viability, T/C: 0.55%
[9]
  viability, T/C: 0.44%
[10]
  viability, T/C: 0.46%
[29]
  viability, T/C: 0.41%
[30]
  viability, T/C: 0.57%
[31]
  viability, T/C: 0.41%
[32]
  viability, T/C: 2.84%
[11]
  viability, T/C: 0.24%
[12]
  viability, T/C: 0.41%
[33]
  viability, T/C: 0.35%
[34]
  viability, T/C: 0.27%
[35]
  viability, T/C: 1.4%
[36]
  viability, T/C: 1.8%
